In brackets after ≈: the same amount, converted by molar mass.
Key:
Assay type in all cases: cell-based
[1] = tested on: ATCC25922 strain (Escherichia coli); experiment: Broth microdilution, antibacterial activity of the compound used alone
From the text: (§1) The broth microdilution method was used to test the antibacterial effects of the compounds of the present invention against various Gram-negative bacterial strains when used alone.

[2] = tested on: ATCC19606 strain (Acinetobacter baumannii); experiment: as above
From the text: as §1

[3] = tested on: ATCC13883 strain (Klebsiella pneumoniae); experiment: as above
From the text: as §1

[4] = tested on: ATCC9027 strain (Pseudomonas aeruginosa); experiment: as above
From the text: as §1

[5] = tested on: ATCC25922 strain (Escherichia coli); experiment: Checkerboard antibacterial synergistic activity test with polymyxin E (FIC); design: key: FIC≤0.5 synergy; 0.5–1 additive; 1–2 indifferent; ≥2 antagonism; conditions: combined with polymyxin E
In short: (§2)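 Interaction is reported as the fractional inhibitory concentration, read after 16 h of growth at 37° C. in Mueller-Hinton broth. Each well paired one level of polymyxin E (prepared at 16 to 0.015 μg/ml) with one of the test agent (prepared at 256 to 4 μg/ml) before bacteria were added.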

[6] = tested on: ATCC19606 strain (Acinetobacter baumannii); experiment: as above; design: key: FIC≤0.5 synergy; 0.5–1 additive; 1–2 indifferent; ≥2 antagonism; conditions: combined with polymyxin E
In short: as §2

[7] = tested on: ATCC13883 strain (Klebsiella pneumoniae); experiment: as above; design: key: FIC≤0.5 synergy; 0.5–1 additive; 1–2 indifferent; ≥2 antagonism; conditions: combined with polymyxin E
In short: as §2

[8] = tested on: ATCC9027 strain (Pseudomonas aeruginosa); experiment: as above; design: key: FIC≤0.5 synergy; 0.5–1 additive; 1–2 indifferent; ≥2 antagonism; conditions: combined with polymyxin E
In short: as §2

| Structure (SMILES) | Antibacterial activity of the compound of Formula I, ATCC25922 [1] | Antibacterial activity of the compound of Formula I, ATCC19606 [2] | Antibacterial activity of the compound of Formula I, ATCC13883 [3] | Antibacterial activity of the compound of Formula I, ATCC9027 [4] | Synergistic activity (FIC value) ATCC25922 [5] | Synergistic activity (FIC value) ATCC19606 [6] | Synergistic activity (FIC value) ATCC13883 [7] | Synergistic activity (FIC value) ATCC9027 [8] | MIC ([1]; read-out: Antibacterial activity of the compound of Formula I, ATCC25922) | MIC ([2]; read-out: Antibacterial activity of the compound of Formula I, ATCC19606) | MIC ([3]; read-out: Antibacterial activity of the compound of Formula I, ATCC13883) | MIC ([4]; read-out: Antibacterial activity of the compound of Formula I, ATCC9027) |
| --- | --- | --- | --- | --- | --- | --- | --- | --- | --- | --- | --- | --- |
| CSc1cc2cccc(C)n2c1-c1nc(N=C(N)N)sc1Cl [Compound I-127] | 128 µg/mL | 256 µg/mL | 128 µg/mL | 64 µg/mL | 0.14 | 0.31 | 0.09 | 0.06 | – | – | – | – |
| CSc1cc2cc(C)cc(C)n2c1-c1nc(N=C(N)N)oc1C [Compound I-128] | 256 µg/mL | 256 µg/mL | 256 µg/mL | 256 µg/mL | 0.18 | 0.03 | 0.16 | 0.28 | – | – | – | – |
| CSc1cc2c(Cl)cccn2c1-c1c[nH]c(N=C(N)N)n1 [Compound I-129] | 256 µg/mL | 256 µg/mL | 256 µg/mL | 256 µg/mL | 0.14 | 0.31 | 0.09 | 0.06 | – | – | – | – |
| CSc1cc2cc(Cl)cc(Cl)n2c1-c1nc(N=C(N)N)sc1Cl [Compound I-130] | 256 µg/mL | 256 µg/mL | 256 µg/mL | 256 µg/mL | 0.18 | 0.03 | 0.16 | 0.28 | – | – | – | – |
| NC(N)=Nc1nc(-c2cccc(NC(=O)Nc3ccccc3)c2)cs1 [Compound I-131] | – | – | – | – | 0.14 | 0.31 | 0.09 | 0.06 | 256 µg/mL (≈ 726 µM) | 256 µg/mL (≈ 726 µM) | 256 µg/mL (≈ 726 µM) | 256 µg/mL (≈ 726 µM) |
| Cc1ccc(NC(=O)Nc2cccc(-c3nc(N=C(N)N)sc3C)c2)c(C)c1 [Compound I-132] | 256 µg/mL | 256 µg/mL | 256 µg/mL | 256 µg/mL | 0.18 | 0.03 | 0.16 | 0.28 | – | – | – | – |
| NC(N)=Nc1nc(-c2cccc(NC(=O)Nc3ccc(Cl)cc3Cl)c2)c(Cl)s1 [Compound I-133] | 256 µg/mL | 256 µg/mL | 256 µg/mL | 256 µg/mL | 0.04 | 0.38 | 0.19 | 0.04 | – | – | – | – |
| Clc1ccc(Oc2ccccc2)c(-c2coc(N=C3NCCCN3)n2)c1 [Compound I-134] | 256 µg/mL | 256 µg/mL | 256 µg/mL | 256 µg/mL | 1.25 | 1.25 | 0.53 | 0.52 | – | – | – | – |
| Nc1cc(Oc2ccccc2)cc(-c2c[nH]c(N=C3NCCCN3)n2)c1 [Compound I-135] | 256 µg/mL | 256 µg/mL | 256 µg/mL | 256 µg/mL | 0.51 | 0.26 | 0.75 | 0.53 | – | – | – | – |
| Fc1cc(-c2csc(N=C3NCCCN3)n2)c(F)cc1Oc1ccccc1 [Compound I-136] | 256 µg/mL | 256 µg/mL | 256 µg/mL | 256 µg/mL | 0.5 | 1.25 | 1.25 | 1.25 | – | – | – | – |
| Oc1ccc(-c2ccccn2)c(-c2c[se]c(N=C3NCCCN3)n2)c1 [Compound I-137] | 128 µg/mL | 256 µg/mL | 128 µg/mL | 128 µg/mL | 0.5 | 1.25 | 1.25 | 1.25 | – | – | – | – |
| CNC(=O)c1ccc(-c2ccncn2)c(-c2csc(N=C3NCCCN3)n2)c1 [Compound I-138] | 256 µg/mL | 256 µg/mL | 256 µg/mL | 256 µg/mL | 1.25 | 1.25 | 1.25 | 1.25 | – | – | – | – |
| Cc1oc(N=C2NCCCN2)nc1-c1cc(NS(C)(=O)=O)ccc1-c1ccco1 [Compound I-139] | 256 µg/mL | 256 µg/mL | 256 µg/mL | 256 µg/mL | 0.5 | 0.75 | 1.25 | 1.25 | – | – | – | – |
| FC(F)(F)c1ccc(-c2cccs2)c(-c2c[nH]c(N=C3NCCCN3)n2)c1 [Compound I-140] | 256 µg/mL | 256 µg/mL | 256 µg/mL | 256 µg/mL | 1.25 | 0.51 | 1.25 | 0.52 | – | – | – | – |
| O=C(NC1CC1)c1ccc(-c2nccs2)c(-c2nc(N=C3NCCCN3)sc2Br)c1 [Compound I-141] | 256 µg/mL | 256 µg/mL | 256 µg/mL | 256 µg/mL | 1.25 | 0.51 | 1.25 | 0.52 | – | – | – | – |

Source: US20260250257A1, “ANTIBACTERIAL AND SYNERGISTIC ACTIVE COMPOUND AND USE THEREOF” (EAST CHINA UNIVERSITY OF SCIENCE AND TECHNOLOGY, priority 2023, published 2026)
